In PMC9916685, “Discovery of Small Molecule COX-1 and Akt Inhibitors as Anti-NSCLC Agents Endowed with Anti-Inflammatory Action” (International Journal of Molecular Sciences, 2023):

Experiments:
COX-1 = biological target: T1, COX-1 (Ovis aries, UniProt P05979); assay: COX (ovine) colorimetric inhibitor screening assay, COX-1; format: biochemical; conditions: for IC50: ovine COX-1, colorimetric, triplicate, mean ± SD; for SI (IC50 for COX-1/IC50 for COX-2): selectivity index
T1 construct: purchased Cayman
T1 sequence (P05979 25-600): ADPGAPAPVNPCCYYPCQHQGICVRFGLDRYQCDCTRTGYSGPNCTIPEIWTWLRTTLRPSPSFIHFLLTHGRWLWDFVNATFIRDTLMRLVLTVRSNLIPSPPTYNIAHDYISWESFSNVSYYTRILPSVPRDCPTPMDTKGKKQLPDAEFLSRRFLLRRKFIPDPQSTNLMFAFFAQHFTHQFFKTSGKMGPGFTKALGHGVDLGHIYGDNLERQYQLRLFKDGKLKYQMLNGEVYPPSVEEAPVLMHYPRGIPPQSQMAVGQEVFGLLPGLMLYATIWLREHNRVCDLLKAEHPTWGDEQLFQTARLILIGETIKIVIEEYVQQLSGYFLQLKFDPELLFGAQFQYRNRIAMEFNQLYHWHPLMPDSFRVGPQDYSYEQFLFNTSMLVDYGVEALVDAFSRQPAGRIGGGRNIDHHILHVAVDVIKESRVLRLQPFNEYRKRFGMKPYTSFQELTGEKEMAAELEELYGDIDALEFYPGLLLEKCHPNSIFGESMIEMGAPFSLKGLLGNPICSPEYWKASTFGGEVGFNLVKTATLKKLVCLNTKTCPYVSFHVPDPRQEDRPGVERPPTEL
Protocol: (§1) COX (ovine) Colorimetric Inhibitor Screening Assay (Cayman, Ann Arbor, MI, USA) was conducted to detect the peroxidase component of COX-1 and COX-2 according to the manufacturer’s instructions. The assay was performed in triplicate. Half maximal inhibitory concentration (IC50) data (µM) were expressed as mean ± SD.

[1] = test system: L929 mouse fibroblast (normal) cells; assay: MTT cytotoxicity assay, L929 normal cells; format: cell-based; conditions: MTT, L929 mouse fibroblast cells, mean ± SD
Protocol: A549 human lung adenocarcinoma and L929 mouse fibroblast cell lines were obtained from American Type Culture Collection (ATCC) (Manassas, VA, USA). Both cell lines were cultured, and drug treatments were carried out as previously reported.
MTT assay was conducted as previously explained in the literature with small modifications. Cisplatin was used as a positive control. The assay was performed in triplicate. IC50 data (µM) were expressed as mean ± SD.

COX-2 = biological target: T2, COX-2 (Ovis aries, UniProt P79208); assay: COX (ovine) colorimetric inhibitor screening assay, COX-2; format: biochemical; conditions: ovine COX-2, colorimetric, triplicate, mean ± SD
T2 construct: purchased Cayman
T2 sequence (P79208 17-603): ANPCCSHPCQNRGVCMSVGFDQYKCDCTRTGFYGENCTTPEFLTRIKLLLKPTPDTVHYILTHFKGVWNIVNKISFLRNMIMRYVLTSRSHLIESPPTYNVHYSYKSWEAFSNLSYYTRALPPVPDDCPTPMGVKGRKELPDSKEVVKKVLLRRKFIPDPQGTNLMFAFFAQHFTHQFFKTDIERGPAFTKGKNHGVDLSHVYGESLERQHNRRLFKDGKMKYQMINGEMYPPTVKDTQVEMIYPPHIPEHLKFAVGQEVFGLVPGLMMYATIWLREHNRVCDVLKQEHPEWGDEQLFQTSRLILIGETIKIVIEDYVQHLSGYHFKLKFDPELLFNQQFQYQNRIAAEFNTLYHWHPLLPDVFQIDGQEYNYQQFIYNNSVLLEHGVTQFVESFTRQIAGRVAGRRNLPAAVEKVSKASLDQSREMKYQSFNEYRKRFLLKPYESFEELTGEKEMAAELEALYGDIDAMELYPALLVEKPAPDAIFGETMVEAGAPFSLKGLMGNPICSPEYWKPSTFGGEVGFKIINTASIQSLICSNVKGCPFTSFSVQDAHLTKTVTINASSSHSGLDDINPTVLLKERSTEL
Protocol: as §1

| IC50 (COX-1) [µM] | SI (IC50 for COX-1/IC50 for COX-2) (COX-1) | melting point [°C] | IC50 (COX-2) [µM] | SMILES | IC50 [1] [µM] |
| --- | --- | --- | --- | --- | --- |
| 10.3 ± 0.35 | 0.83 | 302 to 303 | 12.5 ± 0.71 | O=C(Cc1c[nH]c2ccccc12)NN=Cc1ccc(N2CCCC2)cc1 [Compound 3a, 2-(1H-Indol-3-yl)-N′-[4-(pyrrolidin-1-yl)benzylidene]acetohydrazide] | 17.3 ± 2.08 |
| > 100 | – | 265 to 266 | > 100 | O=C(Cc1c[nH]c2ccccc12)NN=Cc1ccc(N2CCCCC2)cc1 [Compound 3c, 2-(1H-Indol-3-yl)-N′-[4-(piperidin-1-yl)benzylidene]acetohydrazide] | 21.3 ± 0.58 |
| 78.5 ± 8.5 | <0.79 | 218 to 220 | > 100 | CN1CCN(c2ccc(C=NNC(=O)Cc3c[nH]c4ccccc34)cc2)CC1 [Compound 3d, 2-(1H-Indol-3-yl)-N′-[4-(4-methylpiperazin-1-yl)benzylidene]acetohydrazide] | 20 ± 1.73 |
| 83.8 ± 6.25 | 2.39 | 264 to 265 | 35 ± 9.9 | CS(=O)(=O)c1ccc(C=NNC(=O)Cc2c[nH]c3ccccc23)cc1 [Compound 3e, 2-(1H-Indol-3-yl)-N′-(4-methylsulfonylbenzylidene)acetohydrazide] | 85 ± 17.3 |
| 93.7 ± 6.25 | 1.84 | 204 to 205 | 51 ± 12.7 | CC(=NNC(=O)Cc1c[nH]c2ccccc12)c1ccc(S(C)(=O)=O)cc1 [Compound 3f, 2-(1H-Indol-3-yl)-N′-[1-(4-methylsulfonylphenyl)ethylidene]acetohydrazide] | < 3.9 |
| 51 ± 1 | 0.97 | 198 to 199 | 52.5 ± 0.71 | CC(=NNC(=O)Cc1c[nH]c2ccccc12)c1ccc(N2CCOCC2)cc1 [Compound 3g, 2-(1H-Indol-3-yl)-N′-[1-(4-morpholinophenyl)ethylidene]acetohydrazide] | < 3.9 |
| 38.5 ± 1.5 | 0.76 | 132 to 135 | 50.5 ± 0.7 | O=C(Cc1c[nH]c2ccccc12)NN=Cc1ccc(OCCN2CCOCC2)cc1 [Compound 3h, 2-(1H-Indol-3-yl)-N′-[4-(2-morpholinoethoxy)benzylidene]acetohydrazide] | < 3.9 |
| 31.2 ± 1.25 | <0.31 | 221 to 224 | > 100 | Cn1cc(C=NNC(=O)Cc2c[nH]c3ccccc23)c2ccccc21 [Compound 3i, 2-(1H-Indol-3-yl)-N′-[(1-methyl-1H-indol-3-yl)methylene]acetohydrazide] | 42.3 ± 0.58 |
| > 100 | >1.63 | 184 to 186 | 61.5 ± 0.71 | O=C(Cc1c[nH]c2ccccc12)NNC(=S)Nc1ccc(C(F)(F)F)cc1 [Compound 4b, 4-(4-Trifluoromethylphenyl)-1-[2-(1H-indol-3-yl)acetyl]thiosemicarbazide] | 22.7 ± 2.08 |
| > 100 | >1.77 | 180 to 182 | 56.5 ± 4.49 | N#Cc1ccc(NC(=S)NNC(=O)Cc2c[nH]c3ccccc23)cc1 [Compound 4c, 4-(4-Cyanophenyl)-1-[2-(1H-indol-3-yl)acetyl]thiosemicarbazide] | 26.3 ± 3.51 |
| > 100 | >1.69 | 182 to 184 | 59 ± 8.48 | O=C(Cc1c[nH]c2ccccc12)NNC(=S)Nc1ccc(S(=O)(=O)N2CCCCC2)cc1 [Compound 4d, 4-[4-(Piperidin-1-ylsulfonyl)phenyl]-1-[2-(1H-indol-3-yl)acetyl]thiosemicarbazide] | 45.7 ± 6.03 |
| > 100 | >3.17 | 196 to 198 | 31.5 ± 2.12 | O=C(Cc1c[nH]c2ccccc12)NNC(=S)Nc1ccc(-n2cccn2)cc1 [Compound 4e, 4-[4-(1H-Pyrazol-1-yl)phenyl]-1-[2-(1H-indol-3-yl)acetyl]thiosemicarbazide] | 62.3 ± 7.51 |
| > 100 | >1.94 | 168 to 170 | 51.5 ± 0.71 | O=C(Cc1c[nH]c2ccccc12)NNC(=S)Nc1ccc2c(c1)OCO2 [Compound 4f, 4-(1,3-Benzodioxol-5-yl)-1-[2-(1H-indol-3-yl)acetyl]thiosemicarbazide] | 14 ± 5.29 |
| > 100 | >1.68 | 198 to 200 | 59.5 ± 2.12 | O=C(Cc1c[nH]c2ccccc12)NNC(=S)Nc1ccc(OCc2ccccc2)cc1 [Compound 4g, 4-[4-(Benzyloxy)phenyl]-1-[2-(1H-indol-3-yl)acetyl]thiosemicarbazide] | 14 ± 3.46 |

| SMILES | IC50 (COX-1) [µM] | SI (IC50 for COX-1/IC50 for COX-2) (COX-1) | melting point [°C] | IC50 (COX-2) [µM] | IC50 [1] [µM] |
| --- | --- | --- | --- | --- | --- |
| COc1ccc2[nH]cc(C=NNC(=O)Cc3c[nH]c4ccccc34)c2c1 [Compound 3j, 2-(1H-Indol-3-yl)-N′-[(5-methoxy-1H-indol-3-yl)methylene]acetohydrazide] | > 100 | >2.25 | – | 44.5 ± 6.36 | 43 ± 1.73 |
